Measurements published in PubChem BioAssay AID2060502 (Molecular Pharmacology Branch, DTP, NCI, 2025).

Tested on: 885724-159-R-J1-PDC complex spheroid viability
Test: Anticancer human tumor 885724-159-R-J1-PDC patient-derived pancreatic adenocarcinoma cell line growth inhibition [GQUAD]
Settings: for IC50: curve of first compound; for viability, T/C: stronger effect = lower value
Summary of the method: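 Tumor cells were grown as complex spheroids with HUVEC endothelial cells and mesenchymal stem cells as stroma. G-quadruplex stabilizers were combined with targeted agents over half-log dilutions from near the clinical Cmax, or from 10 microM.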

[1] = second compound 0.0316 µM, first compound 0.0316 µM
[2] = second compound 0.0316 µM, first compound 0.1 µM
[3] = second compound 0.0316 µM, first compound 0.316 µM
[4] = second compound 0.0316 µM, first compound 1 µM
[5] = second compound 0.0316 µM, first compound 3.16 µM
[6] = second compound 0.0316 µM, first compound 10 µM
[7] = second compound 0.1 µM, first compound 0.0316 µM
[8] = second compound 0.1 µM, first compound 0.1 µM
[9] = second compound 0.1 µM, first compound 0.316 µM
[10] = second compound 0.1 µM, first compound 1 µM
[11] = second compound 0.1 µM, first compound 3.16 µM
[12] = second compound 0.1 µM, first compound 10 µM
[13] = second compound 0.316 µM, first compound 0.0316 µM
[14] = second compound 0.316 µM, first compound 0.1 µM
[15] = second compound 0.316 µM, first compound 0.316 µM
[16] = second compound 0.316 µM, first compound 1 µM
[17] = second compound 0.316 µM, first compound 3.16 µM
[18] = second compound 0.316 µM, first compound 10 µM
[19] = second compound 1 µM, first compound 0.0316 µM
[20] = second compound 1 µM, first compound 0.1 µM
[21] = second compound 1 µM, first compound 0.316 µM
[22] = second compound 1 µM, first compound 1 µM
[23] = second compound 1 µM, first compound 3.16 µM
[24] = second compound 1 µM, first compound 10 µM
[25] = second compound 3.16 µM, first compound 0.0316 µM
[26] = second compound 3.16 µM, first compound 0.1 µM
[27] = second compound 3.16 µM, first compound 0.316 µM
[28] = second compound 3.16 µM, first compound 1 µM
[29] = second compound 3.16 µM, first compound 3.16 µM
[30] = second compound 3.16 µM, first compound 10 µM
[31] = second compound 10 µM, first compound 0.0316 µM
[32] = second compound 10 µM, first compound 0.1 µM
[33] = second compound 10 µM, first compound 0.316 µM
[34] = second compound 10 µM, first compound 1 µM
[35] = second compound 10 µM, first compound 3.16 µM
[36] = second compound 10 µM, first compound 10 µM
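Further: spheroids exposed to agents for seven days before readout.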
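Wherever viability, T/C is given: percent of vehicle control viability where 100% = DMSO wells.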

Work on `COc1ncnc(C2CC2)c1-c1ncc2cnn(Cc3ccc(-c4nc(C(F)(F)F)cn4C(C)C)cc3)c2n1` + Cc1cnc(CNC(=O)c2c(=O)c3ccc(N4CCCN(C)CC4)nc3n3c2sc2ccccc23)cn1 yielded an IC50 (second compound 0.0316 µM) greater than 10000 nM, an IC50 (second compound 0.1 µM) greater than 10000 nM and an IC50 (second compound 0.316 µM) greater than 10000 nM. For the same molecule, the IC50 (second compound 1 µM) was greater than 10000 nM, the IC50 (second compound 3.16 µM) was greater than 10000 nM and the IC50 (second compound 10 µM) was greater than 10000 nM. It also gave a viability, T/C [1] of 113%, a viability, T/C [2] of 106% and a viability, T/C [3] of 103%. It also gave a viability, T/C [4] of 114%, a viability, T/C [5] of 115% and a viability, T/C [6] of 118%. It also gave a viability, T/C [7] of 117%, a viability, T/C [8] of 114% and a viability, T/C [9] of 111%. The viability, T/C [10] was 103%, the viability, T/C [11] was 112% and the viability, T/C [12] was 109%. It also gave a viability, T/C [13] of 97.5%, a viability, T/C [14] of 97.4% and a viability, T/C [15] of 92.4%. It also gave a viability, T/C [16] of 98.5%, a viability, T/C [17] of 110% and a viability, T/C [18] of 106%. For the same molecule, the viability, T/C [19] was 95.1%, the viability, T/C [20] was 90.8% and the viability, T/C [21] was 93.6%. The viability, T/C [22] was 87.5%, the viability, T/C [23] was 99.3% and the viability, T/C [24] was 87.3%. It also gave a viability, T/C [25] of 76.4%, a viability, T/C [26] of 73.6% and a viability, T/C [27] of 73.2%. The viability, T/C [28] was 72.7%, the viability, T/C [29] was 82.5% and the viability, T/C [30] was 79.5%. It also gave a viability, T/C [31] of 69.5%, a viability, T/C [32] of 69.5% and a viability, T/C [33] of 61.8%. It also gave a viability, T/C [34] of 66.5%, a viability, T/C [35] of 76.7% and a viability, T/C [36] of 75.8%.
`COc1cccc2c1C(=O)c1c(O)c3c(c(O)c1C2=O)CC(O)(C(=O)CO)CC3OC1CC(N)C(O)C(C)O1` (stereo unspecified) + Cc1cnc(CNC(=O)c2c(=O)c3ccc(N4CCCN(C)CC4)nc3n3c2sc2ccccc23)cn1 gave an IC50 (second compound 0.0316 µM) of 2420 nM, an IC50 (second compound 0.1 µM) of 2030 nM and an IC50 (second compound 0.316 µM) of 1780 nM. The IC50 (second compound 1 µM) was 1340 nM, the IC50 (second compound 3.16 µM) was 1050 nM and the IC50 (second compound 10 µM) was 889 nM. It also gave a viability, T/C [1] of 118%, a viability, T/C [2] of 99.5% and a viability, T/C [3] of 97.7%. The viability, T/C [4] was 79.2%, the viability, T/C [5] was 39.8% and the viability, T/C [6] was 3.19%. It also gave a viability, T/C [7] of 106%, a viability, T/C [8] of 109% and a viability, T/C [9] of 99%. It also gave a viability, T/C [10] of 83.1%, a viability, T/C [11] of 29.6% and a viability, T/C [12] of 2.62%. For the same molecule, the viability, T/C [13] was 96.9%, the viability, T/C [14] was 93% and the viability, T/C [15] was 89.2%. It also gave a viability, T/C [16] of 62.6%, a viability, T/C [17] of 35.8% and a viability, T/C [18] of 4.79%. The viability, T/C [19] was 89.7%, the viability, T/C [20] was 88.8% and the viability, T/C [21] was 85.2%. The viability, T/C [22] was 57.2%, the viability, T/C [23] was 24.1% and the viability, T/C [24] was 2.16%. The viability, T/C [25] was 88.1%, the viability, T/C [26] was 84.8% and the viability, T/C [27] was 73.2%. The viability, T/C [28] was 53.6%, the viability, T/C [29] was 17.4% and the viability, T/C [30] was 0.96%. The viability, T/C [31] was 72.2%, the viability, T/C [32] was 80.4% and the viability, T/C [33] was 74%. For the same molecule, the viability, T/C [34] was 46.4%, the viability, T/C [35] was 12.4% and the viability, T/C [36] was 0.74%.
`C=CC(=O)N1CCN(c2nc(=O)n(-c3c(C)ccnc3C(C)C)c3nc(-c4c(O)cccc4F)c(F)cc23)C(C)C1` (stereo unspecified) + Cc1[nH]c2ccc(F)cc2c1-c1nc2c3cccnc3c3ncccc3c2[nH]1 showed an IC50 (second compound 0.0316 µM) greater than 10000 nM, an IC50 (second compound 0.1 µM) greater than 10000 nM and an IC50 (second compound 0.316 µM) greater than 10000 nM. The IC50 (second compound 1 µM) was greater than 10000 nM, the IC50 (second compound 3.16 µM) was less than 31.6 nM and the IC50 (second compound 10 µM) was greater than 10000 nM. For the same molecule, the viability, T/C [1] was 97.3%, the viability, T/C [2] was 106% and the viability, T/C [3] was 98.4%. It also gave a viability, T/C [4] of 104%, a viability, T/C [5] of 98% and a viability, T/C [6] of 97.2%. The viability, T/C [7] was 105%, the viability, T/C [8] was 97.6% and the viability, T/C [9] was 98.7%. It also gave a viability, T/C [10] of 106%, a viability, T/C [11] of 109% and a viability, T/C [12] of 99.2%. It also gave a viability, T/C [13] of 95.5%, a viability, T/C [14] of 105% and a viability, T/C [15] of 92.8%. The viability, T/C [16] was 94.3%, the viability, T/C [17] was 122% and the viability, T/C [18] was 88.6%. The viability, T/C [19] was 73.7%, the viability, T/C [20] was 71.9% and the viability, T/C [21] was 69.7%. For the same molecule, the viability, T/C [22] was 73.6%, the viability, T/C [23] was 78.7% and the viability, T/C [24] was 73.7%. It also gave a viability, T/C [25] of 45.9%, a viability, T/C [26] of 29.1% and a viability, T/C [27] of 33.4%. For the same molecule, the viability, T/C [28] was 38.5%, the viability, T/C [29] was 33.4% and the viability, T/C [30] was 27.8%. It also gave a viability, T/C [31] of 64.3%, a viability, T/C [32] of 70.3% and a viability, T/C [33] of 72.1%. The viability, T/C [34] was 79.2%, the viability, T/C [35] was 73% and the viability, T/C [36] was 65.9%.
